Data: ChEMBL document CHEMBL1909046, “DrugMatrix in vitro pharmacology data”

Tests used:
[1] = DRUGMATRIX: Sodium/nucleoside co-transporter radioligand binding (ligand: nitrobenzylthioinosine); format: cell membranes, Cavia porcellus, Dunkin-Hartley, Cerebral cortex, Membrane; conditions: Not Active = under 50% inhibition at 10 µM
[2] = biological target: T1, Alpha-1B adrenergic receptor (Rattus norvegicus, UniProt P15823); assay: DRUGMATRIX: Alpha-1B adrenergic receptor radioligand binding (ligand: prazosin); format: cell membranes, Wistar, Liver, Membrane; conditions: Not Active = under 50% inhibition at 10 µM
T1 sequence (P15823 whole entry): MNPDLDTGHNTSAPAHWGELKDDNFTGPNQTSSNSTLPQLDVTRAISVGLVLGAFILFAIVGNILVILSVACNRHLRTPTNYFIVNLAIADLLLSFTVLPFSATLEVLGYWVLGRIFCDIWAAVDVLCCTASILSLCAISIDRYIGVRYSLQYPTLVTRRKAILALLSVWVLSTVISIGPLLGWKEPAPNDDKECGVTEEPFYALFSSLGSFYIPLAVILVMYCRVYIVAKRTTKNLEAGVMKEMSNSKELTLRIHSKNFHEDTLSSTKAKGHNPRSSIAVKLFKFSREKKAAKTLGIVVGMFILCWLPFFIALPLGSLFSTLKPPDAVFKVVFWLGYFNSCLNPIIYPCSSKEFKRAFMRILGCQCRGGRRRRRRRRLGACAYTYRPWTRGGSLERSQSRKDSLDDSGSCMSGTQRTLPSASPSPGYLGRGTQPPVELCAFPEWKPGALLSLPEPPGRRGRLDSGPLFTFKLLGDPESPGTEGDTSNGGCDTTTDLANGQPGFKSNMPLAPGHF

[3] = DRUGMATRIX: Calcium Channel Type L, Phenylalkylamine radioligand binding (ligand: [3H] (-)-Desmethoxyverapamil (D-888)); format: cell membranes, Rattus norvegicus, Wistar, Brain, Membrane; conditions: Not Active = under 50% inhibition at 10 µM
[4] = DRUGMATRIX: Glutamate, AMPA radioligand binding (ligand: [3H] AMPA); format: cell membranes, Rattus norvegicus, Wistar, Cerebral cortex, Membrane; conditions: Not Active = under 50% inhibition at 10 µM
[5] = DRUGMATRIX: Nicotinic Acetylcholine radioligand binding (ligand: [125I] Epibatidine); format: cell membranes, Membrane; conditions: imr-32; Not Active = under 50% inhibition at 10 µM
Cytochrome P450 2A6 = biological target: T2, Cytochrome P450 2A6 (Homo sapiens, UniProt P11509); conditions: bti-tn-5b1-4; further: in other assays of this panel Not Active means under 50% inhibition at 10 µM
T2 sequence (P11509 whole entry): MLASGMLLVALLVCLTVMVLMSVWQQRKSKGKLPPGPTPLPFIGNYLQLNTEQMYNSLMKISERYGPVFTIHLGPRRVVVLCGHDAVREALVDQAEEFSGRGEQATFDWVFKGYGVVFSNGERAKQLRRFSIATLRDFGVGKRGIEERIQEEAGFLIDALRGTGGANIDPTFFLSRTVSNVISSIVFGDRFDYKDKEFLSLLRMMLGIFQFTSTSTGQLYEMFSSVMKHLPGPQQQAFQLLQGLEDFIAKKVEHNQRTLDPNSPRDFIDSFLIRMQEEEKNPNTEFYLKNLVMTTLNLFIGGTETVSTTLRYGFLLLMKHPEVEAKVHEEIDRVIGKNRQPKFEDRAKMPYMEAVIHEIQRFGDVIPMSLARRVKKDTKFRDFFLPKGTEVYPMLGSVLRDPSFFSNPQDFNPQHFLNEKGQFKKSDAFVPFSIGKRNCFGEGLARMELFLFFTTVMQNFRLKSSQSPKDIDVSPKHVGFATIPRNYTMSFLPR

Compound	IC50 [1]	Ki [1]	IC50 [2]	IC50 ([3]; read-out: IC50)	Ki ([3]; read-out: Ki)	IC50 [4]	Ki [4]	IC50 [5]	Ki [5]	IC50 (Cytochrome P450 2A6)	Ki (Cytochrome P450 2A6)	IC50 [3]	Ki [3]	IC50 ([2]; read-out: IC50)	Ki ([2]; read-out: Ki)
COc1ccc([C@@H]2Sc3ccccc3N(CCN(C)C)C(=O)[C@@H]2OC(C)=O)cc1 [DILTIAZEM]	Not Active	Not Active	Not Active	630 nM	612 nM	Not Active	Not Active	Not Active	Not Active	Not Active	Not Active				
C=C1CC[C@H](O)C/C1=C/C=C1\CCC[C@]2(C)[C@@H]([C@H](C)/C=C/[C@H](C)C(C)C)CC[C@@H]12 [ERGOCALCIFEROL]	Not Active	Not Active	Not Active			Not Active	Not Active	Not Active	Not Active	Not Active	Not Active	Not Active	Not Active		
CN1C[C@H](C(=O)N[C@]2(C)O[C@@]3(O)[C@@H]4CCCN4C(=O)[C@H](Cc4ccccc4)N3C2=O)C=C2c3cccc4[nH]cc(c34)C[C@H]21 [ERGOTAMINE]	Not Active	Not Active				Not Active	Not Active	Not Active	Not Active	Not Active	Not Active	Not Active	Not Active	8.21 nM	4.55 nM
Cc1c(-c2ccccc2)oc2c(C(=O)OCCN3CCCCC3)cccc2c1=O [FLAVOXATE]	Not Active	Not Active	Not Active			Not Active	Not Active	Not Active	Not Active	Not Active	Not Active	Not Active	Not Active		
Nc1nc(=O)[nH]cc1F [FLUCYTOSINE]	Not Active	Not Active	Not Active			Not Active	Not Active	Not Active	Not Active	Not Active	Not Active	Not Active	Not Active		
CC(=O)[C@@]1(O)CC[C@H]2[C@@H]3C[C@H](C)C4=CC(=O)C=C[C@]4(C)[C@@]3(F)[C@@H](O)C[C@@]21C [FLUOROMETHOLONE]	Not Active	Not Active	Not Active			Not Active	Not Active	Not Active	Not Active	Not Active	Not Active	Not Active	Not Active		
O=c1[nH]cc(F)c(=O)[nH]1 [FLUOROURACIL]	Not Active	Not Active	Not Active			Not Active	Not Active	Not Active	Not Active	Not Active	Not Active	Not Active	Not Active		
CC(C)n1c(/C=C/C(O)CC(O)CC(=O)O)c(-c2ccc(F)cc2)c2ccccc21 (stereo unspecified) [FLUVASTATIN]	Not Active	Not Active	Not Active			Not Active	Not Active	Not Active	Not Active	Not Active	Not Active	Not Active	Not Active		
NCC1(CC(=O)O)CCCCC1 [GABAPENTIN]	Not Active	Not Active	Not Active			Not Active	Not Active	Not Active	Not Active	Not Active	Not Active	Not Active	Not Active		
CC[N+](CC)(CC)CCOc1cccc(OCC[N+](CC)(CC)CC)c1OCC[N+](CC)(CC)CC.[I-].[I-].[I-] [GALLAMINE TRIETHIODIDE]	Not Active	Not Active	Not Active			Not Active	Not Active	Not Active	Not Active	Not Active	Not Active	Not Active	Not Active		
Nc1nc2c(ncn2COC(CO)CO)c(=O)[nH]1 [GANCICLOVIR]	Not Active	Not Active	Not Active			Not Active	Not Active	Not Active	Not Active	Not Active	Not Active	Not Active	Not Active		
COc1c(N2CCNC(C)C2)c(F)cc2c(=O)c(C(=O)O)cn(C3CC3)c12 (stereo unspecified) [GATIFLOXACIN]	Not Active	Not Active	Not Active			Not Active	Not Active	Not Active	Not Active	Not Active	Not Active	Not Active	Not Active		
CC1(C)[C@@H](O[C@H]2O[C@H](C(=O)O)[C@@H](O)[C@H](O)[C@H]2O[C@@H]2O[C@H](C(=O)O)[C@@H](O)[C@H](O)[C@H]2O)CC[C@]2(C)[C@H]3C(=O)C=C4[C@@H]5C[C@@](C)(C(=O)O)CC[C@]5(C)CC[C@@]4(C)[C@]3(C)CC[C@@H]12 [GLYCYRRHIZIN]	Not Active	Not Active	Not Active			Not Active	Not Active	Not Active	Not Active	Not Active	Not Active	Not Active	Not Active		
COC1=CC(=O)C[C@@H](C)[C@]12Oc1c(Cl)c(OC)cc(OC)c1C2=O [GRISEOFULVIN]	Not Active	Not Active	Not Active			Not Active	Not Active	Not Active	Not Active	Not Active	Not Active	Not Active	Not Active		
C/C=C1\[C@H]2C=C(C)C[C@]1(N)c1ccc(=O)[nH]c1C2 [HUPERZINE A]	Not Active	Not Active	Not Active			Not Active	Not Active	Not Active	Not Active	Not Active	Not Active	Not Active	Not Active		
